Measurements reported in publication PMC6278313.
Residue numbers refer to the chain shown, from its start. Like-named read-outs stand apart in the source and are kept apart here. Blank lines part the entries; values can stand above or below the molecule they belong to.

Key:
[1] = Measured logD of radioligands (n-octanol / sodium phosphate buffer); assay type: physicochemical; conditions: n-octanol / sodium phosphate buffer 0.1 M pH 7.4; γ-counter
Protocol: cLogD (at pH 7.4) values were computed with Pallas for Windows software version 3.8 in default mode (CompuDrug International; Bal Harbor, FL, USA). The logD values of [^11C]17, [^18F]20, and [d2-^18F]27 were measured by a method that we have described previously. The radioactivity contents in the n-octanol and sodium phosphate buffer (0.1 M; pH 7.4) phases were determined with a γ-counter.

COX-2 [2] = biological target: COX-2; set-up: method as in literature cited in the text (18-30); conditions: cited from earlier work
COX-2 [3] = biological target: T1, COX-2 (Homo sapiens, UniProt P35354); assay: COX-2 inhibition, human whole blood (Prostaglandin E2 EIA); assay type: cell-based
T1 construct: endogenous in cells; host or cells: fresh human whole blood
T1 sequence (P35354 18-604): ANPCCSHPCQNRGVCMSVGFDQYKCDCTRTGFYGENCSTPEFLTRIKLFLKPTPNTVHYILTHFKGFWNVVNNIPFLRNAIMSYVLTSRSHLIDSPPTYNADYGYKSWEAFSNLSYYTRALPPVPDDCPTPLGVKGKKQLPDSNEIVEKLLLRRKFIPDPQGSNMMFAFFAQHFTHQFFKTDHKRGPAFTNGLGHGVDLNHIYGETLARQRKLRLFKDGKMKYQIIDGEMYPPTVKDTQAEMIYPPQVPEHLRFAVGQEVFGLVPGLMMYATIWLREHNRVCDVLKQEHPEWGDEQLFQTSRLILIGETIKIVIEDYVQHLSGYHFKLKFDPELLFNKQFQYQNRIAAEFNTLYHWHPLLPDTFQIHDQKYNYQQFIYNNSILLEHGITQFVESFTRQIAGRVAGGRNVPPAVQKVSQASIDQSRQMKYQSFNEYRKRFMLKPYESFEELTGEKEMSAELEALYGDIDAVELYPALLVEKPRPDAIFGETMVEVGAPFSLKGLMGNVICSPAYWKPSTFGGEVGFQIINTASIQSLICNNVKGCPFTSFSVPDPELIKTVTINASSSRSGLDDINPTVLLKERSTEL

[4] = tested on: all tested receptors, transporters, and binding sites; assay: NIMH-PDSP radioligand binding screen, whole panel; conditions: 10 μM; except the sites named for 17 and 27
COX-1 [5] = biological target: T2, COX-1 (Homo sapiens, UniProt P23219); set-up: endogenous in cells; host or cells: fresh human whole blood; conditions: footnote c; SE <15%; read-out: IC50 COX-1 Human WB (literature); cited from earlier work
COX-2 [6] = conditions: cited from earlier work
human COX-2 = conditions: cited from earlier work; for Selectivity vs. COX-1: human whole blood, COX-2 over COX-1
COX-1 [7] = biological target: T2, COX-1; assay: COX-1 inhibition, human whole blood (Thromboxane B2 EIA)
COX-1 [8] = biological target: T3, COX-1 (Macaca mulatta, UniProt F6S984); assay: COX-1 inhibition, monkey whole blood (Thromboxane B2 EIA)
T3 sequence (F6S984 25-599): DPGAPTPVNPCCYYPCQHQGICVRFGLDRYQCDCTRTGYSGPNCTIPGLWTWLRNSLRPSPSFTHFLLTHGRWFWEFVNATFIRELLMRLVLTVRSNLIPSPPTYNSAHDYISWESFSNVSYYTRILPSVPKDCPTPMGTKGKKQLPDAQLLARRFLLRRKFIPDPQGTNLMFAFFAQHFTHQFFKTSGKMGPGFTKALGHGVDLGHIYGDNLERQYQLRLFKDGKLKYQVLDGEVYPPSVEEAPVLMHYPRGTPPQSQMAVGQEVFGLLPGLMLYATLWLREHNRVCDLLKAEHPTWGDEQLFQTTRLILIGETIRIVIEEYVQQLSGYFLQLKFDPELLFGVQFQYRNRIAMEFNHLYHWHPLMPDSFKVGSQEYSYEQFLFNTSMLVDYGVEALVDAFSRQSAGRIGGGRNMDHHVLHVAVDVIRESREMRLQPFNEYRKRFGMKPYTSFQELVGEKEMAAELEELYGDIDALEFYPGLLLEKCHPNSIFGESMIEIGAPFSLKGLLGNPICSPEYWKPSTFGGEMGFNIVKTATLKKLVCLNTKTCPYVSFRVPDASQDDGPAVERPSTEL

COX-2 [9] = biological target: T4, COX-2 (Macaca mulatta, UniProt F7BWZ9); assay: COX-2 inhibition, monkey whole blood (Prostaglandin E2 EIA)
T4 sequence (F7BWZ9 18-604): T1 sequence (P35354 18-604) with H7Y, F49L, A101V, L150F, S163T, N191K, A208D, R211H, T363N, G570R

benzodiazepine (BzP) = assay: NIMH-PDSP radioligand binding screen, benzodiazepine site; set-up: species or system rat; conditions: 10 μM
[10] = Chart 1, ref literature cited in the text (18-30)
[11] = mean ± SD, triplicate unless d n = 1, e n = 2, read-out: IC50 COX-2 Human WB
[12] = Chart 1, PET in vivo, ref literature cited in the text (18-30)
[13] = Table 1, human whole blood COX-2, SEM <15%, read-out: HWB IC50
[14] = footnote c, SE <15%, read-out: IC50 COX-2 Human WB (literature) (converted)

T2 sequence (P23219 24-599): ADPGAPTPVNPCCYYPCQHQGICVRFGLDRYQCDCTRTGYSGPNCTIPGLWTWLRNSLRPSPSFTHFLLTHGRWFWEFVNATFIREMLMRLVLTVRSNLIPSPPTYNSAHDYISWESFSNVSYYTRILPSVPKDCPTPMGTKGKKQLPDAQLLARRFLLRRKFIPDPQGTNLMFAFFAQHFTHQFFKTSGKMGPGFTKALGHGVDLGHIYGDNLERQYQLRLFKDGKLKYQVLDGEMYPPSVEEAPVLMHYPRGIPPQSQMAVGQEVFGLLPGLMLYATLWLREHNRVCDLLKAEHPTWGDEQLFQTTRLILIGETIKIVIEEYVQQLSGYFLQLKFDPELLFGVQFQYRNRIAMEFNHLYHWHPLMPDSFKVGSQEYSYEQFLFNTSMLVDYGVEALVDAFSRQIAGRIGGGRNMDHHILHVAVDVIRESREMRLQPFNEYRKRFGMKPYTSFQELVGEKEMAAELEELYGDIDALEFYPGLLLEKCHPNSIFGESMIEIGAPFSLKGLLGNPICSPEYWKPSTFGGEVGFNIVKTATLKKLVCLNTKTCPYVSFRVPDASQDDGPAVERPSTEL

logD [1]: 3.74 ± 0.02
SMILES: CS(=O)(=O)c1ccc(-c2nc(NCc3cccs3)cc(O[11CH3])n2)cc1 [[^11C]17]

SMILES: Cc1ccc(-c2cc(C(F)(F)F)nn2-c2ccc(S(=O)(=O)Nc3cccc([18F])c3)cc2)cc1 [[^18F]3]
Ki (COX-2 [2]; [10]): 250 nM

IC50 (COX-2 [3]; [11]): > 1000 nM
inhibition of radioligand binding at all tested receptors, transporters, and binding sites [4]: less than 50%
SMILES: CN(Cc1cccs1)c1cc(Cl)nc(-c2ccc(S(C)(=O)=O)cc2)n1 [Compound 30, 6-Chloro-N-methyl-2-(4-(methylsulfonyl)phenyl)-N-(thiophen-2-ylmethyl)pyrimidin-4-amine]

melting point: 130.4 to 131.4 °C
SMILES: CS(=O)(=O)c1ccc(-c2nc(Cl)cc(NCc3ccccc3)n2)cc1 [Compound 23, N-Benzyl-6-chloro-2-(4-(methylsulfonyl)phenyl)pyrimidin-4-amine]
IC50 (COX-1 [5]): > 100000 nM

SMILES: [11CH3]Oc1ccc(-c2cc(C(F)(F)F)nn2-c2ccc(S(N)(=O)=O)cc2)cc1 [[^11C]2]
brain entry (COX-2 [6]; [12]): Low brain penetration

melting point: 261.7 to 263.2 °C
SMILES: CS(=O)(=O)c1ccc(-c2nc(O)cc(NCc3cccs3)n2)cc1 [Compound 26, 2-(4-(Methylsulfonyl)phenyl)-6-(thiophen-2-yl-methylamino)pyrimidin-4-ol]
inhibitory potency for COX-2 (human COX-2): low inhibitory potency
IC50 (COX-1 [5]): > 100000 nM

IC50 (COX-2 [3]; [11]): 2.5 nM
melting point: 130.4 to 131.4 °C
SMILES: CS(=O)(=O)c1ccc(-c2nc(F)cc(NCc3cccs3)n2)cc1 [Compound 29, 6-Fluoro-2-(4-(methylsulfonyl)phenyl)-N-(thiophen-2-ylmethyl)pyrimidin-4-amine]

SMILES: [11CH3]Oc1ccc(-c2cncn2-c2ccc(S(N)(=O)=O)cc2)cc1 [[^11C]6]
Ki (COX-2 [2]; [10]): 5 nM
brain entry (COX-2 [6]; [12]): Low brain uptake

IC50 (COX-2 [3]; [11]): 3.52 ± 0.43 nM
melting point: 160 to 162.1 °C
IC50 (COX-1 [7]): > 1000 nM
IC50 (COX-1 [8]): > 1000 nM
IC50 (COX-2 [9]): 52.3 ± 0.01 nM
SMILES: CCSc1cc(NCc2cccs2)nc(-c2ccc(S(C)(=O)=O)cc2)n1 [Compound 19, 6-Thioethyl-2-(4-(methylsulfonyl)phenyl)-N-(thiophen-2-ylmethyl)pyrimidin-4-amine]
IC50 (human COX-2; [13]): 1.2 nM
IC50 (human COX-2; [14]): 1.2 nM
Selectivity vs. COX-1 (human COX-2): >8403
IC50 (COX-1 [5]): > 10000 nM

melting point: 170 to 171.2 °C
IC50 (COX-1 [7]): > 10000 nM
SMILES: CS(=O)(=O)c1ccc(-c2nc(Cl)cc(NCc3cccs3)n2)cc1 [Compound 25, 6-Chloro-2-(4-(methylsulfonyl)phenyl)-N-(thiophen-2-ylmethyl)pyrimidin-4-amine]
IC50 (human COX-2; [13]): 1.2 nM
IC50 (human COX-2; [14]): 1.2 nM
IC50 (COX-1 [5]): > 100000 nM

logD [1]: 3.7 ± 0.12
SMILES: [2H]C([2H])([18F])Oc1cc(NCc2cccs2)nc(-c2ccc(S(C)(=O)=O)cc2)n1 [[d2-^18F]27]

IC50 (COX-2 [3]; [11]): 2.26 ± 0.63 nM
inhibition of radioligand binding at benzodiazepine (BzP) (benzodiazepine (BzP)): 50.8%
inhibition of radioligand binding at all tested receptors, transporters, and binding sites [4]: less than 50%
IC50 (COX-1 [7]): > 1000 nM
IC50 (COX-1 [8]): > 1000 nM
IC50 (COX-2 [9]): 2.26 ± 0.45 nM
SMILES: CS(=O)(=O)c1ccc(-c2nc(NCc3cccs3)cc(OCF)n2)cc1 [Compound 27, 6-(2-Fluoromethoxy)-2-(4-(methylsulfonyl)phenyl)-N-(thiophen-2-yl-methyl)pyrimidin-4-amine]

SMILES: NS(=O)(=O)c1ccc(-c2c(-c3ccccc3)noc2C[18F])cc1 [[^18F]5]
Ki (COX-2 [2]): 2 nM
brain entry (COX-2 [6]; in vivo): Some brain entry
defluorination in vivo (COX-2 [6]; in vivo): Rapidly defluorinated
specific signal / specific binding in vivo (COX-2 [6]; in vivo): No brain specific signal

IC50 (COX-2 [3]): 7.35 ± 1.35 nM
melting point: 133.4 to 134.6 °C
IC50 (COX-1 [7]): > 1000 nM
IC50 (COX-1 [8]): > 1000 nM
IC50 (COX-2 [9]): 14.6 ± 10.1 nM
SMILES: COc1cc(NCc2ccccc2)nc(-c2ccc(S(C)(=O)=O)cc2)n1 [Compound 22, N-Benzyl-6-methoxy-2-(4-(methylsulfonyl)phenyl)pyrimidin-4-amine]
Selectivity vs. COX-1 (human COX-2): >19,646
IC50 (human COX-2; read-out: HWB IC50): 5.1 nM
IC50 (human COX-2; read-out: IC50 COX-2 Human WB (literature) (converted)): 5.1 nM
IC50 (COX-1 [5]): > 100000 nM

IC50 (COX-2 [3]; [11]): 1.9 nM
melting point: 147.7 to 149.2 °C
IC50 (COX-2 [9]): 1.28 nM
SMILES: CS(=O)(=O)c1ccc(-c2nc(NCc3cccs3)cc(OCCF)n2)cc1 [Compound 20, 6-(2-Fluoroethoxy)-2-(4-(methylsulfonyl)phenyl)-N-(thiophen-2-ylmethyl)pyrimidin-4-amine]

SMILES: [11CH3]Oc1ccc(-c2c(-c3ccc(S(N)(=O)=O)cc3)[nH]c3ccccc23)cc1 [[^11C]7]
brain entry (COX-2 [6]; [12]): Low rat brain uptake

inhibition of radioligand binding at all tested receptors, transporters, and binding sites [4]: less than 50%
melting point: 169.2 to 170.4 °C
IC50 (COX-1 [7]): > 10000 nM
SMILES: CCOc1cc(NCc2cccs2)nc(-c2ccc(S(C)(=O)=O)cc2)n1 [Compound 18, 6-Ethoxy-2-(4-(methylsulfonyl)phenyl)-N-(thiophen-2-ylmethyl)pyrimidin-4-amine]

SMILES: [11CH3]S(=O)(=O)c1ccc(C2=C(c3ccccc3)C(=O)OC2)cc1 [[^11C]4, [^11C]rofecoxib]
brain entry (COX-2 [6]; in vivo): Low brain entry
brain entry (SUV) (COX-2 [6]; in vivo): 0.26 SUV
specific signal / specific binding in vivo (COX-2 [6]; in vivo): No specific binding in rat inflammatory models

logD [1]: 2.94 ± 0.32
SMILES: CS(=O)(=O)c1ccc(-c2nc(NCc3cccs3)cc(OCC[18F])n2)cc1 [[^18F]20]

IC50 (COX-2 [3]; [11]): 2.65 ± 0.45 nM
melting point: 159.1 to 160.4 °C
IC50 (COX-1 [7]): > 1000 nM
IC50 (COX-1 [8]): > 1000 nM
IC50 (COX-2 [9]): 4.83 ± 2.31 nM
SMILES: CSc1cc(NCc2cccs2)nc(-c2ccc(S(C)(=O)=O)cc2)n1 [Compound 21, 6-Thiomethyl-2-(4-(methylsulfonyl)phenyl)-N-(thiophen-2-ylmethyl)pyrimidin-4-amine]

melting point: 287.9 to 289.2 °C
IC50 (COX-1 [7]): > 1000 nM
IC50 (COX-1 [8]): > 1000 nM
IC50 (COX-2 [9]): > 1000 nM
SMILES: CS(=O)(=O)c1ccc(-c2nc(O)cc(NCc3ccccc3)n2)cc1 [Compound 24, 6-(Benzylamino)-2-(4-(methylsulfonyl)phenyl)pyrimidin-4-ol]
inhibitory potency for COX-2 (human COX-2): low inhibitory potency
IC50 (COX-1 [5]): > 100000 nM
